According to publication PMC6222843, “Reversal Effect of Oxypeucedanin on P-glycoprotein-mediated Drug Transport” (Molecules : A Journal of Synthetic Chemistry and Natural …, 2018):
Counter-ions that a name gives are not always drawn. Like-named read-outs stand apart in the source and are kept apart here.

Assays:
[1] = system: MDCK-MDR1 cells; assay: MTT assay, viability of MDCK-MDR1 cells; assay type: cell-based, canine
Protocol: The effects of OPD and VCR on the viability of MDCK-MDR1 cells were observed by a MTT assay.
MDCK-MDR1 Cells were obtained from Shanghai Zhongya Institute of Biological Genes Institute (CinoAsia Co., Ltd., Shanghai, China). Cells were cultured as previously described. In brief, cells were cultured in high glucose DMEM medium supplemented with 10% fetal bovine serum (FBS), 1% non-essential amino acids, 1% L-glutamine, and a penicillin-streptomycin double antibiotic solution. Cells were incubated at 37 °C with 5% CO2 and cell medium was changed every other day.

[2] = system: P-gp; assay: Western blotting of P-gp protein expression in MDCK-MDR1 cells; assay type: cell-based, canine; settings: OPD 17.5 and 70 μmol/L for 48 h, in comparison with control group
Protocol: MDCK-MDR1 cells treated with different concentrations of OPD (3.5, 17.5 and 70 μmol/L) for 48 h were subject to western blotting for determination of P-gp protein level. Cells were washed 3 times with PBS. Total protein was extracted and the protein concentrations were measured according to the manufacturer’s instructions. Cell protein were denatured at 70 °C for 10 min. Protein samples with equivalent amounts were loaded and separated by 10% SDS-polyacrylamide gel electrophoresis and transferred to a polyvinylidene difluoride membranes. Membranes were blocked in 5% powdered non-fat milk solution for 4 h at room temperature and incubated with anti-P-gp primary antibody (GADPH was used as a loading control) overnight at 4 °C followed by an goat anti-mouse IgG secondary antibody (1:5000 dilutions) for 4 h at room temperature. Membranes were incubated with an ECL chromogenic solution for 4 min in the dark. The target protein bands were detected and protein intensity was calculated by a gel imaging system (Beta 3, Bio-Rad, Irvine, CA, USA).

[3] = system: MDR1; assay: RT-qPCR of MDR1 mRNA expression in MDCK-MDR1 cells; assay type: cell-based, human; settings: OPD 3.5, 17.5 and 70 μmol/L for 48 h, compared to untreated cells
Protocol: MDCK-MDR1 cells were cultured for 5 days and treated with different concentrations of OPD (3.5, 17.5 and 70 μmol/L) for 48 h to measure MDR1 gene expression level. The total celluar RNA was extracted by the RNA easy Total RNA mini kit and reverse transcribed to cDNA with reverse transcription kit according to the manufacturer’s protocol. PCR primer design and synthesis were performed by the primer design software provided by Applied Biosystems. Primer sequences for MDR1 and hRpIPIv-F (loading internal control) genes are as follows: human hRpIP1v-F forward, 5′-[…]-3′; human hRpIP1v-F reverse, 5′-[…]-3′; human MDR1 forward, 5′-[…]-3′, human MDR1 reverse, 5′-[…]-3′. PCR amplification was performed using Power SYBR Green PCR Mix according to the manufacturer’s protocol (Life Technologies, Carlsbad, CA, USA).

[4] = biological target: recombinant human P-gp membranes (Homo sapiens, UniProt P08183); settings: compared to basal P-gp ATPase activity
recombinant human P-gp membranes, sequence (P08183 whole entry): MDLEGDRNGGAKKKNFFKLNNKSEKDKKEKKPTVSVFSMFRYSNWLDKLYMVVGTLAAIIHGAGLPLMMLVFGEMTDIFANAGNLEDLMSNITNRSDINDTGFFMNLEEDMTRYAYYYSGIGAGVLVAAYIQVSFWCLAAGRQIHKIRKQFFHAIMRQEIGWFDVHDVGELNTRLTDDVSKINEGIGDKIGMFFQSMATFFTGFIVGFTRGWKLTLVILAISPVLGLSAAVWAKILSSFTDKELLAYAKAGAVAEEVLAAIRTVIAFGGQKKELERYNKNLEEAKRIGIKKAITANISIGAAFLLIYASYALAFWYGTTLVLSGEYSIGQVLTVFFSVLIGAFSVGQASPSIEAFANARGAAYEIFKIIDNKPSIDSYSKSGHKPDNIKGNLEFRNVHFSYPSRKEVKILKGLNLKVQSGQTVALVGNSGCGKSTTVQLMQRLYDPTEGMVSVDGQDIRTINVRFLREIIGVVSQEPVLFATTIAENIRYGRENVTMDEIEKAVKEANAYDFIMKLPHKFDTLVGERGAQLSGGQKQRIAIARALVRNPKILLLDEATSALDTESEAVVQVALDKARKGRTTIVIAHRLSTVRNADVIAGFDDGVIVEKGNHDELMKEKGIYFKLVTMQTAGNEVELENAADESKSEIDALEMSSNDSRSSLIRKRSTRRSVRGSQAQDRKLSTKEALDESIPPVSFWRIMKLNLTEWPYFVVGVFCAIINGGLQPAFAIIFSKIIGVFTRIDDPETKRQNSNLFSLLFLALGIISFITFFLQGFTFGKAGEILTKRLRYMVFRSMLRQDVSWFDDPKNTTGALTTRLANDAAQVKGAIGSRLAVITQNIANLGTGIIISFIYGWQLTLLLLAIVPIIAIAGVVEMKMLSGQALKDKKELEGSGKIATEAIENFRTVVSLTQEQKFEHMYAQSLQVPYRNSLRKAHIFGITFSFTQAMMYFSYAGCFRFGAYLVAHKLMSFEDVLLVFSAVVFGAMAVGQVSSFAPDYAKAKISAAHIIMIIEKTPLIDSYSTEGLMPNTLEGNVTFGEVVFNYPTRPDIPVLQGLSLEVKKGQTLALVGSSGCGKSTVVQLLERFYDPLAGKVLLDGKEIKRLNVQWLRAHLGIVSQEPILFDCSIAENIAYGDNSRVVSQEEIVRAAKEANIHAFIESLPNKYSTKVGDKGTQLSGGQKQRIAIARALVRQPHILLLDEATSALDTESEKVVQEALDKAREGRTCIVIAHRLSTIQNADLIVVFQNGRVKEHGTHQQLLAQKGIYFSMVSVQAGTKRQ
Protocol: P-gp ATPase activity was measured using P-gp-Glo™ assay systems kit according to the manufacturer’s instructions, the method detail of which was also described in our previous study [29]. […] After 40 min, ATP detection reagent was added, respectively. The unconsumed ATP detection reagent reacted with luciferase at room temperature for 20 min and the chemiluminescence intensity was detected. The average relative light units (RLU) was calculated as follows:RLUNa3VO4 − RLUNT = ΔRLUbasal(1) RLUNa3VO4 − RLUTC = ΔRLUTC(2)
ΔRLUbasal, the decrease in luminescence of the untreated group (RLUNT) compared to the Na3VO4 group (RLUNa3VO4), represents the basal P-gp ATPase activity. ΔRLUTC, the decrease in luminescence of the test compound-treated group (RLUTC) compared to the Na3VO4 group (RLUNa3VO4), indicates the P-gp ATPase activity in the presence of the test compound. The decrease in luminescence reflect ATP consumption by P-gp and is proportional to P-gp activity.

[5] = Transport of VCR across MDCK-MDR1 cell monolayer (A→B); assay type: in vitro ADME, canine; settings: dog, MDCK-MDR1, pH 7.4, VCR 264.46 μmol/L alone, 37 °C, n = 3
Protocol: Briefly, cell monolayers were pre-incubated in Hank’s buffered salt solution (HBSS, pH 7.4) for 30 min at 37 °C. Trans-epithelial electric resistance (TEER) values of the MDCK-MDR1 cell monolayer ranged from 500 to 800 Ω·cm^2. All drugs were dissolved in DMSO and diluted in HBSS. The final concentration of DMSO is less than 1%. […] After treatments, cells were incubated at 37 °C for 2 h. After 2 h, 500 µL aliquots were taken from the basal side, mixed with 500 µL methanol, vortexed 2 min and then centrifuged for 10 min at 16,000 rpm. The supernatants were collected to measure the concentrations of compounds by high performance liquid-chromatography/mass spectroscopy (LC-MS/MS). Apparent permeability (Papp) values are calculated from the relationship: Papp=dQ/dt/A×C0 where dQ/dt is the cumulative transport rate of the compound on the receiving side (µg/s), A is the surface area of the cell monolayer (cm^2), and C0 is the initial concentration in the donor compartment (µg/mL).

[6] = Plasma pharmacokinetics of DTX in rats with or without OPD (LC-MS/MS); settings: male, Sprague-Dawley, rat, po, 50 mg/kg
Protocol: Ten 8-week-old male Sprague-Dawley rats were randomly divided into the following two groups (5 rats in each group). Group 1: rats were administered a single oral dose of 50 mg/kg of DTX dissolved in 0.5% CMC-Na. […] Blood samples were centrifuged for 10 min at approximately 4000 rpm. 100 µL of plasma was collected from the upper layer, and mixed with 20 µL of taxol internal standard solution for 30 s followed by 500 µL of methanol for 3 min, then centrifuged at 15,000 rpm for 10 min. The supernatant was separated and collected. 5 μL of the supernatant was injected into the LC-MS/MS system for detection and quantification.
Separation was performed on a ZORBAX Extend-C18 (2.1 × 100 mm, 3.5 µm, Agilent, Palo Alto, CA, USA). The column oven was maintained at 25 °C.

With `CC1(C)O[C@H]1COc1c2ccoc2cc2oc(=O)ccc12` [OPD, Oxypeucedanin] the “cytotoxicity (viability of MDCK-MDR1 cells, MTT assay)” value ([1]; OPD 3.82, 19.08, 76.30 μmol/L) was “no obvious cytotoxicity”, the P-gp protein expression [2] was “obvious reduction” and the “mRNA expression of MDR1” value [3] was “significantly downregulated”. For the same compound, the “increase in P-gp ATPase activity” value ([4]; OPD 3.5 μmol/L) was 0.55 fold, the “increase in P-gp ATPase activity” value ([4]; OPD 17.5 μmol/L) was 0.31 fold and the “increase in P-gp ATPase activity” value ([4]; OPD 70 μmol/L) was 0.50 fold.

With `CC[C@]1(O)C[C@H]2CN(CCc3c([nH]c4ccccc34)[C@@](C(=O)OC)(c3cc4c(cc3OC)N(C=O)[C@H]3[C@@](O)(C(=O)OC)[C@H](OC(C)=O)[C@]5(CC)C=CCN6CC[C@]43[C@@H]65)C2)C1` [VCR, Vincristine sulfate] the “cytotoxicity (viability of MDCK-MDR1 cells, MTT assay)” value ([1]; VCR 264.46 μmol/L) was “no obvious cytotoxicity” and the Papp A→B at 2 h, 264.46 μmol/L [5] was 0.37 ± 0.04 ×10⁻⁶ cm/s.

With `CC(=O)O[C@@]12CO[C@@H]1C[C@H](O)[C@@]1(C)C(=O)[C@H](O)C3=C(C)[C@@H](OC(=O)[C@H](O)[C@@H](NC(=O)OC(C)(C)C)c4ccccc4)C[C@@](O)([C@@H](OC(=O)c4ccccc4)[C@H]21)C3(C)C` [DTX, Docetaxel] the AUC(0-inf) [6] was 306 ± 21.1 ng·h/mL, the AUC(0-t) [6] was 276 ± 19.1 ng·h/mL and the Cmax [6] was 118 ± 10.9 ng/mL. For the same compound, the MRT inf [6] was 4.29 ± 0.98 h, the MRT last [6] was 2.96 ± 0.22 h and the half-life [6] was 4.13 ± 1.08 h.
